US6413956B1, “Substituted 4-oxo-quinoline-3-carboxamides” (Neurogen Corporation, priority 1999, dated 2002)

melting point	SMILES
184 °C (dec.)	CNC(C)c1cccc(CNC(=O)c2c[nH]c3ccc(Cl)cc3c2=O)c1.Cl (centres unmarked)
203 to 208 °C	Cl.O=C(NCc1cccc(CN2CCOCC2)c1)c1c[nH]c2ccccc2c1=O
177 to 180 °C	Cl.O=C(NCc1ccc(CN2CCOCC2)cc1)c1c[nH]c2ccccc2c1=O
120 to 122 °C	Cc1nc(Cc2ccc(CNC(=O)c3c[nH]c4ccc(F)cc4c3=O)cc2)c[nH]1.Cl
252 °C (dec.)	CCNCc1ccc(CNC(=O)c2c[nH]c3ccccc3c2=O)cc1.Cl
198 °C (dec.)	CN(C)Cc1ccc(CNC(=O)c2c[nH]c3ccc(Cl)cc3c2=O)cc1.Cl
178 °C (dec.)	CN(C)Cc1cccc(CNC(=O)c2c[nH]c3ccc(Cl)cc3c2=O)c1.Cl
222 to 225 °C (dec.)	CCOc1ccc2[nH]cc(C(=O)NCc3ccc(CN(C)C)cc3)c(=O)c2c1.Cl
235 to 237 °C	Cl.O=C(NCc1ccccc1)c1c[nH]c2c(F)cccc2c1=O
205 to 207 °C	CCCCNC(=O)c1c[nH]c2c(F)cccc2c1=O.Cl
205 to 209 °C	O=C(NCC1CCCO1)c1c[nH]c2ccccc2c1=O (centres unmarked) [compound 1, N-tetrahydrofurfuryl 4-oxo-1,4-dihydro-quinoline-3-carboxamide]
180 to 181 °C	CC(C)CCNC(=O)c1c[nH]c2ccccc2c1=O [compound 4, N-Isoamyl 4-oxo-1,4-dihydro-quinoline-3-carboxamide]
173 °C	O=C(NCc1ccccc1)c1c[nH]c2ccccc2c1=O [compound 5, N-Benzyl 4-oxo-1,4-dihydro-quinoline-3-carboxamide]
213 to 215 °C	O=C(NCc1ccc(F)cc1)c1c[nH]c2ccccc2c1=O [compound 8, N-(4-Fluorobenzyl) 4-oxo-1,4-dihydro-quinoline-3-carboxamide]
193 to 195 °C	O=C(NCc1ccco1)c1c[nH]c2ccccc2c1=O [compound 9, N-[(2-Furanyl)methyl] 4-oxo-1,4-dihydro-quinoline-3-carboxamide]
207 °C	O=C(NCc1ccc2c(c1)OCO2)c1c[nH]c2ccccc2c1=O [compound 11, N-Piperonyl 4-oxo-1,4-dihydro-quinoline-3-carboxamide]
211 to 212 °C	COc1ccc(CNC(=O)c2c[nH]c3ccccc3c2=O)cc1OC [compound 12, N-(3,4-Dimethoxybenzyl) 4-oxo-1,4-dihydro-quinoline-3-carboxamide]
235 to 240 °C	O=C(NCc1cccs1)c1c[nH]c2ccccc2c1=O [compound 13, N-[(2-Thienyl)methyl] 4-oxo-1,4-dihydro-quinoline-3-carboxamide]
203 to 205 °C	CCOc1ccc(CNC(=O)c2c[nH]c3ccccc3c2=O)cc1 [compound 16, N-(4-Ethoxybenzyl) 4-oxo-1,4-dihydro-quinoline-3-carboxamide]

melting point	SMILES
141 to 142 °C	CCOCCCNC(=O)c1c[nH]c2ccccc2c1=O [compound 17, N-(3-Ethoxypropyl) 4-oxo-1,4-dihydro-quinoline-3-carboxamide]
148 °C (dec.)	CCNCc1cccc(CNC(=O)c2c[nH]c3ccc(Cl)cc3c2=O)c1 [compound 28, N-[3-(Ethylaminomethyl)benzyl] 6-chloro-4-oxo-1,4-dihydro-quinoline-3-carboxamide]
195 to 196 °C	COCc1ccc2[nH]cc(C(=O)NCc3ccccc3)c(=O)c2c1 [compound 31, N-Benzyl 6-methoxymethyl-4-oxo-1,4-dihydro-quinoline-3-carboxamide]
225 to 226 °C	COCc1ccc2[nH]cc(C(=O)NCc3cccs3)c(=O)c2c1 [compound 32, N-[(2-Thienyl)methyl] 6-methoxymethyl-4-oxo-1,4-dihydro-quinoline-3-carboxamide]
95 to 97 °C	CCOCCCNC(=O)c1c[nH]c2ccc(COC)cc2c1=O [compound 33, N-[(3-Ethoxy)propyl] 6-methoxymethyl-4-oxo-1,4-dihydro-quinoline-3-carboxamide]
157 to 159 °C	CCCCNC(=O)c1c[nH]c2ccc(COC)cc2c1=O [compound 34, N-Butyl 6-methoxymethyl-4-oxo-1,4-dihydro-quinoline-3-carboxamide]
209 to 211 °C	CCOc1ccc2[nH]cc(C(=O)NCc3ccccc3)c(=O)c2c1 [compound 39, N-Benzyl 6-ethoxy-4-oxo-1,4-dihydro-quinoline-3-carboxamide]
223 to 224 °C	CCOc1ccc2[nH]cc(C(=O)NCc3cccs3)c(=O)c2c1 [compound 41, N-[(2-Thienyl)methyl] 6-ethoxy-4-oxo-1,4-dihydro-quinoline-3-carboxamide]
179 to 181 °C	CCOCCCNC(=O)c1c[nH]c2ccc(OCC)cc2c1=O [compound 42, N-[(3-Ethoxy)propyl] 6-ethoxy-4-oxo-1,4-dihydro-quinoline-3-carboxamide]
163 to 164 °C	CCOc1ccc2[nH]cc(C(=O)NCCCOC(C)C)c(=O)c2c1 [compound 43, N-[(3-Isopropoxy)propyl] 6-ethoxy-4-oxo-1,4-dihydro-quinoline-3-carboxamide]
181 to 182 °C	CCOc1ccc2[nH]cc(C(=O)NCC3CCCO3)c(=O)c2c1 (centres unmarked) [compound 44, N-[(2-Tetrahydrofuranyl)methyl] 6-ethoxy-4-oxo-1,4-dihydro-quinoline-3-carboxamide]
180 to 183 °C	CCOc1ccc2[nH]cc(C(=O)NCCC(C)C)c(=O)c2c1 [compound 45, N-Isoamyl 6-ethoxy-4-oxo-1,4-dihydro-quinoline-3-carboxamide]
191 to 193 °C	CCOc1ccc2[nH]cc(C(=O)NC3CCCCC3)c(=O)c2c1 [compound 46, N-Cyclohexyl 6-ethoxy-4-oxo-1,4-dihydro-quinoline-3-carboxamide]
226 to 228 °C	CCOc1ccc2[nH]cc(C(=O)NCc3ccc4c(c3)OCO4)c(=O)c2c1 [compound 47, N-Piperonyl 6-ethoxy-4-oxo-1,4-dihydro-quinoline-3-carboxamide]
175 to 177 °C	CCOc1ccc2[nH]cc(C(=O)NCCCOC)c(=O)c2c1 [compound 48, N-[(3-Methoxy)propyl] 6-ethoxy-4-oxo-1,4-dihydro-quinoline-3-carboxamide]
237 to 238 °C	CCOc1ccc2[nH]cc(C(=O)NCc3ccccc3F)c(=O)c2c1 [compound 49, N-(2-Fluorobenzyl) 6-ethoxy-4-oxo-1,4-dihydro-quinoline-3-carboxamide]
210 to 212 °C	CCOc1ccc2[nH]cc(C(=O)NCc3cccc(F)c3)c(=O)c2c1 [compound 50, N-(3-Fluorobenzyl) 6-ethoxy-4-oxo-1,4-dihydro-quinoline-3-carboxamide]
221 to 222 °C	CCOc1ccc2[nH]cc(C(=O)NCc3ccccn3)c(=O)c2c1 [compound 51, N-[(2-Pyridyl)methyl] 6-ethoxy-4-oxo-1,4-dihydro-quinoline-3-carboxamide]
222 to 224 °C	CCOc1ccc2[nH]cc(C(=O)NCc3cccnc3)c(=O)c2c1 [compound 52, N-[(3-Pyridyl)methyl] 6-ethoxy-4-oxo-1,4-dihydro-quinoline-3-carboxamide]
